Data taken from the supplement of paper PMC6411743.

The targets below were run with Nc1ncnc2c1ncn2[C@@H]1O[C@H](COP(=O)(O)OP(=O)(O)OP(=O)(O)O)[C@@H](O)[C@H]1O [adenosine triphosphate] (assay: pEC50 of ATP-induced change in protein thermal stability (2D-TPP)).
Protocol: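 2D thermal proteome profiling in mechanically disrupted Jurkat crude lysate. Lysate was treated 10 min at room temperature with Na-ATP (0, 0.005, 0.05, 0.5, 2 mM), heated to 12 temperatures (42-63.9 °C) for 3 min, and soluble protein was quantified by TMT10 LC-MS/MS. pEC50 is the median over replicates of dose-response fits at the lowest temperature showing a fold change of at least 1.5 (FDR-controlled hits).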

Chain of UniProt Q8IV38 (Q8IV38 whole entry): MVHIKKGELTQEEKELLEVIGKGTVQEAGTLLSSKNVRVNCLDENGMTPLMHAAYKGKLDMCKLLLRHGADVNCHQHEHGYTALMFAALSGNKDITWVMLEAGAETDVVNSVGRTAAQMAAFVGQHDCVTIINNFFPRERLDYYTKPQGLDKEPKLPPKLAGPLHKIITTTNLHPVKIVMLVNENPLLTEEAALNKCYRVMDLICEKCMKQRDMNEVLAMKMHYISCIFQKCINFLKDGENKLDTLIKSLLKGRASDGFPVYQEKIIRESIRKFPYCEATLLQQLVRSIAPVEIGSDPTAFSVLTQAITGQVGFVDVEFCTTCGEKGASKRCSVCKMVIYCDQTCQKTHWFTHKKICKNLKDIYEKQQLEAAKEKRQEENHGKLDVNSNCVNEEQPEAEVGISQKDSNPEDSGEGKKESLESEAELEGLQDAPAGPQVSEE
Chain of UniProt P51649 (P51649 whole entry): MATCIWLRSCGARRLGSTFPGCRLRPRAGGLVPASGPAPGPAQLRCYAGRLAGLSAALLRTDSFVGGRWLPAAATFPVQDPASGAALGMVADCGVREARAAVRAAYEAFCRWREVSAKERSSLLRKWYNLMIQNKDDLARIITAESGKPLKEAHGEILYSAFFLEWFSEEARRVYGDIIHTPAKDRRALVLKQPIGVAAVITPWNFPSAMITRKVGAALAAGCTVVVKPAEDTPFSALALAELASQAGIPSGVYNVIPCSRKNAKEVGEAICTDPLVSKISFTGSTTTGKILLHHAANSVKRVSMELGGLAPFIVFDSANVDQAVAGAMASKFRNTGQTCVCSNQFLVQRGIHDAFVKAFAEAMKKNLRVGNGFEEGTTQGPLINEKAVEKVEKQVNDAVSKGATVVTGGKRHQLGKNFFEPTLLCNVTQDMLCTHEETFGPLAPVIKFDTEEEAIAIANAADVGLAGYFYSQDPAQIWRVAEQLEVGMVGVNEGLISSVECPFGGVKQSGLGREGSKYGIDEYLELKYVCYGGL
Chain of UniProt Q9UKU0 (Q9UKU0 whole entry): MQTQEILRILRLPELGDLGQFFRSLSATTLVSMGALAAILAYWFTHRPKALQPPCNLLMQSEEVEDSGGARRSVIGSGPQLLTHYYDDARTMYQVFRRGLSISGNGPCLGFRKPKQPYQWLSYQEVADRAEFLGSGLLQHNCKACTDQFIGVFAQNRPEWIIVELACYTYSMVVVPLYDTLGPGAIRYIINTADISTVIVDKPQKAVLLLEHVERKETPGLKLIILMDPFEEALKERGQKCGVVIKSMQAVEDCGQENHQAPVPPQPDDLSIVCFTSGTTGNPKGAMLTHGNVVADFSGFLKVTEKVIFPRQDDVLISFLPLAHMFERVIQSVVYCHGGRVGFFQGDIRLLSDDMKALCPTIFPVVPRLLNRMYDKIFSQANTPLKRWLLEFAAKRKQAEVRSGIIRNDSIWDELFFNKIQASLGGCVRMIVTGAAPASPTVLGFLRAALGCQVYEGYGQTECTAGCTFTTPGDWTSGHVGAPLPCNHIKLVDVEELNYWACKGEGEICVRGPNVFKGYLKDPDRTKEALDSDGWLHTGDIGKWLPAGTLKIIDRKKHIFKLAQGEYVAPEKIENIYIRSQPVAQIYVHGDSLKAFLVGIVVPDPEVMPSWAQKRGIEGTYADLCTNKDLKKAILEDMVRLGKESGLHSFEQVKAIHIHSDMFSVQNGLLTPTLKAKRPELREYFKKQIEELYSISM
Chain of UniProt Q9BTT0 (Q9BTT0 whole entry): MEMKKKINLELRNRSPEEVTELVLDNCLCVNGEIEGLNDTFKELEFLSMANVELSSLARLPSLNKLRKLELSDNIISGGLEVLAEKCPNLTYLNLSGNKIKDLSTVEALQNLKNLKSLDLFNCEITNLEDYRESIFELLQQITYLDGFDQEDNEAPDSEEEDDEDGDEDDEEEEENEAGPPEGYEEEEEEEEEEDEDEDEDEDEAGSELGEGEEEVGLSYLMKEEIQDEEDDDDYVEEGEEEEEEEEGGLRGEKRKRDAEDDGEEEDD
Chain of UniProt Q14137 (Q14137 whole entry): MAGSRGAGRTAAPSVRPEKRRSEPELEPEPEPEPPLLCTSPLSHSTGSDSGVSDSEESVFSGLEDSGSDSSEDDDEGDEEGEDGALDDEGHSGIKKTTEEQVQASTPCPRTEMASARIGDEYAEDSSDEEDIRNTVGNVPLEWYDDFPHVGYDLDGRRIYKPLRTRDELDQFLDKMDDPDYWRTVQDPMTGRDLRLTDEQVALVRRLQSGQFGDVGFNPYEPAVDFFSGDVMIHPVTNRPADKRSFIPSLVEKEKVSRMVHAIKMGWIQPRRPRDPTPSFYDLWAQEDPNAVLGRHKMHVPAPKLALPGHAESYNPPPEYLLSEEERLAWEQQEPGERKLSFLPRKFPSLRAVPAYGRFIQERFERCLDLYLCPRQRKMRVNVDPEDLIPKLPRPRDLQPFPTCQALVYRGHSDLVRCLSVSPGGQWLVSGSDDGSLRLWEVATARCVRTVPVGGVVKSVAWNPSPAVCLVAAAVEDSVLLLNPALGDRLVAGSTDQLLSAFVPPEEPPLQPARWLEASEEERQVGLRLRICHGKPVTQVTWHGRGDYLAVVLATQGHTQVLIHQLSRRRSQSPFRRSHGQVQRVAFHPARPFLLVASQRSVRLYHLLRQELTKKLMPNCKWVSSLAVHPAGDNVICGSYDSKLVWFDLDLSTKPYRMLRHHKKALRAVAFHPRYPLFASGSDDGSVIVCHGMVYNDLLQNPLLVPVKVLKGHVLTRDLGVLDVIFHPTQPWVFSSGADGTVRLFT
Chain of UniProt Q93084 (Q93084 whole entry): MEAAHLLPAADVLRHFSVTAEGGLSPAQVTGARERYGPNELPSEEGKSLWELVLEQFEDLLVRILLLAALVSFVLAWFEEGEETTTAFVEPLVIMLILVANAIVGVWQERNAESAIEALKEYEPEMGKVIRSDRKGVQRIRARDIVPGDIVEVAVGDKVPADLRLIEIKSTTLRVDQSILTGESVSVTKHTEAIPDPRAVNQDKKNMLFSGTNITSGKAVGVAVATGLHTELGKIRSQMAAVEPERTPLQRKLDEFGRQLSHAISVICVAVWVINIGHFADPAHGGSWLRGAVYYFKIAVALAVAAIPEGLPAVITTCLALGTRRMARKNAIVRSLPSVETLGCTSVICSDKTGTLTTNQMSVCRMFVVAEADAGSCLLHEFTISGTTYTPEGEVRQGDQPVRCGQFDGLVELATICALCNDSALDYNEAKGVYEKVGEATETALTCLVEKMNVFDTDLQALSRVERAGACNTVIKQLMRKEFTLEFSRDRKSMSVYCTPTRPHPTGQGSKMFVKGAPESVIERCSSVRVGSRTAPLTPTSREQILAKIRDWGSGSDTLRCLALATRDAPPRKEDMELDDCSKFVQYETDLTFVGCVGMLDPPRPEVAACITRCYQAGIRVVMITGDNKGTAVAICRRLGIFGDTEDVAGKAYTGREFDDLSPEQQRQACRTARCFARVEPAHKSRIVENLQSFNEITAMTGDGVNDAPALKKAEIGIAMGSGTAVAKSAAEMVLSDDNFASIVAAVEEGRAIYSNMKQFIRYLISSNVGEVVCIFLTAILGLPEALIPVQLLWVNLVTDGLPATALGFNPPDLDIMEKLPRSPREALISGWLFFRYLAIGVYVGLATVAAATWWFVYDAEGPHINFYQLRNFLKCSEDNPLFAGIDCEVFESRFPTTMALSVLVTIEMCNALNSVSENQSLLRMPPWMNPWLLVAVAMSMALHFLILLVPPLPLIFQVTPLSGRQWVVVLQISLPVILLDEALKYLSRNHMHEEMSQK
Chain of UniProt P98194 (P98194 whole entry): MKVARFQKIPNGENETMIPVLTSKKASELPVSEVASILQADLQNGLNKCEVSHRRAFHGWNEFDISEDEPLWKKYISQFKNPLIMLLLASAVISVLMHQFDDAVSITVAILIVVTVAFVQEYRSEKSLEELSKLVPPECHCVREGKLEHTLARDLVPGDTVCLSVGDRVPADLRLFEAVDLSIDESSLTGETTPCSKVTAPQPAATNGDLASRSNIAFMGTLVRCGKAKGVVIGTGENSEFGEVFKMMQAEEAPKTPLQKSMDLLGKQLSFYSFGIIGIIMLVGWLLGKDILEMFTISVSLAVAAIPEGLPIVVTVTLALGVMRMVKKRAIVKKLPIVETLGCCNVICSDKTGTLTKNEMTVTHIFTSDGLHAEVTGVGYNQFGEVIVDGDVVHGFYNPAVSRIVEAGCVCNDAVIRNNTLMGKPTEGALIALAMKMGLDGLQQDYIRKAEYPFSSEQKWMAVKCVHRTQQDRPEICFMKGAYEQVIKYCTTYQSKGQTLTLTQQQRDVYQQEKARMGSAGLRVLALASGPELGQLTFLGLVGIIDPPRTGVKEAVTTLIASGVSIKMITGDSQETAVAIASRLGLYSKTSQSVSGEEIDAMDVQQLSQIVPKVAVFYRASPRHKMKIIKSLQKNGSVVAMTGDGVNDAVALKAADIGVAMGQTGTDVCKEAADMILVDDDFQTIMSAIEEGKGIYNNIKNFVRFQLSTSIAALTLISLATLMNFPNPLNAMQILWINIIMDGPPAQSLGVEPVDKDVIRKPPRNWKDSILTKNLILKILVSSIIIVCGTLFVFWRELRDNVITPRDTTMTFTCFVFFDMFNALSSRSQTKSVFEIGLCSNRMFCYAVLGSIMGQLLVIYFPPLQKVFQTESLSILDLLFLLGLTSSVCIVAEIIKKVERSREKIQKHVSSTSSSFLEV
Chain of UniProt Q9HB71 (Q9HB71 whole entry): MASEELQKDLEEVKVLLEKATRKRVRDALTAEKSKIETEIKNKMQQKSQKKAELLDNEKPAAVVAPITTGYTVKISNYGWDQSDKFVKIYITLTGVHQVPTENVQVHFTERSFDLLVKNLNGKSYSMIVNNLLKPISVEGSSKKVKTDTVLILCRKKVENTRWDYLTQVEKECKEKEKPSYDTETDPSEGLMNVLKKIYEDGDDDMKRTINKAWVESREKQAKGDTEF
Chain of UniProt Q9BPX5 (Q9BPX5 whole entry): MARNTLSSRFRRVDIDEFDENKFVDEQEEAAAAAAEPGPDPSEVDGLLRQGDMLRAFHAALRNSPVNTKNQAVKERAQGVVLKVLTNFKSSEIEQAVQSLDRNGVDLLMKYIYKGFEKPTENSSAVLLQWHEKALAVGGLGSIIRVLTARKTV

Target | pEC50
A0AVT1 (effect direction: stabilized) | 4.35
ABCB8 (effect direction: stabilized) (UniProt Q9NUT2) | 3.5
ABCB10 (effect direction: stabilized) (UniProt Q9NRK6) | 4.06
ACSL1 (effect direction: stabilized) (UniProt P33121) | 3.63
ACSL6 (effect direction: stabilized) (UniProt Q9UKU0) | 3.69
ACTL6A (effect direction: stabilized) (UniProt O96019) | 3.4
ACTR1B (effect direction: stabilized) (UniProt P42025) | 4.23
ACTR10 (effect direction: destabilized) (UniProt Q9NZ32) | < 2.7
AGK (effect direction: stabilized) (UniProt Q53H12) | 2.97
AHSA1 (effect direction: stabilized) (UniProt O95433) | < 2.7
AIP (effect direction: stabilized) (UniProt O00170) | < 2.7
AK2 (effect direction: stabilized) (UniProt P54819) | 4.01
ALDH5A1 (effect direction: stabilized) (UniProt P51649) | 3.06
ALDH6A1 (effect direction: stabilized) (UniProt Q02252) | 3.53
ALDH9A1 (effect direction: stabilized) (UniProt P49189) | 2.9
AMPD3 (effect direction: stabilized) (UniProt Q01432) | 2.95
ANKMY2 (effect direction: stabilized) (UniProt Q8IV38) | < 2.7

Target | pEC50
ANP32A (effect direction: stabilized) (UniProt P39687) | < 2.7
APRT (effect direction: destabilized) (UniProt P07741) | 4.41
ARHGAP1 (effect direction: stabilized) (UniProt Q07960) | 3.14
ARID1A (effect direction: stabilized) (UniProt O14497) | < 2.7
ARPC3 (effect direction: stabilized) (UniProt O15145) | 2.88
ARPC5L (effect direction: stabilized) (UniProt Q9BPX5) | 4.05
ASS1 (effect direction: stabilized) (UniProt P00966) | 3.66
ATP2B4 (effect direction: stabilized) (UniProt P23634) | 3.22
ATP11B (effect direction: stabilized) (UniProt Q9Y2G3) | 4.15
BCL7A (effect direction: destabilized) (UniProt Q4VC05) | 3.03
BICD2 (effect direction: stabilized) (UniProt Q8TD16) | < 2.7
BLVRB (effect direction: stabilized) (UniProt P30043) | 2.87
BNIP2 (effect direction: stabilized) (UniProt Q12982) | < 2.7
C12orf29 (effect direction: destabilized) (UniProt Q8N999) | 3.11
CAMK2G (effect direction: stabilized) (UniProt Q13555) | 3.4
CAPN1 (effect direction: stabilized) (UniProt P07384) | 3.17
CAPNS1 (effect direction: stabilized) (UniProt P04632) | 2.86

The next lines start with the values.

pEC50 | Target
3.29 | AARS2 (effect direction: stabilized) (UniProt Q5JTZ9)
4.2 | AARS (effect direction: stabilized) (UniProt P49588)
3.46 | ABCC1 (effect direction: stabilized) (UniProt P33527)
< 2.7 | ACADM (effect direction: stabilized) (UniProt P11310)
3.16 | ACLY (effect direction: stabilized) (UniProt P53396)
3.82 | ADK (effect direction: stabilized) (UniProt P55263)
4.04 | ADRM1 (effect direction: stabilized) (UniProt Q16186)
3.8 | AFF4 (effect direction: stabilized) (UniProt Q9UHB7)
3.89 | AGPAT5 (effect direction: stabilized) (UniProt Q9NUQ2)
4.33 | AHCY (effect direction: stabilized) (UniProt P23526)
3.12 | ALDH18A1 (effect direction: stabilized) (UniProt P54886)
3.65 | ALKBH5 (effect direction: stabilized) (UniProt Q6P6C2)
< 2.7 | ANP32E (effect direction: stabilized) (UniProt Q9BTT0)
2.79 | ANXA5 (effect direction: stabilized) (UniProt P08758)
< 2.7 | ANXA6 (effect direction: stabilized) (UniProt P08133)
3.17 | ARG2 (effect direction: destabilized) (UniProt P78540)
< 2.7 | ARHGDIB (effect direction: stabilized) (UniProt P52566)
< 2.7 | ARMC1 (effect direction: stabilized) (UniProt Q9NVT9)

pEC50 | Target
3.31 | ASNA1 (effect direction: stabilized) (UniProt O43681)
3.18 | ASNS (effect direction: stabilized) (UniProt P08243)
3.92 | ASPSCR1 (effect direction: stabilized) (UniProt Q9BZE9)
3.06 | ATAD2B (effect direction: destabilized) (UniProt Q9ULI0)
3.74 | ATG7 (effect direction: stabilized) (UniProt O95352)
< 2.7 | ATIC (effect direction: stabilized) (UniProt P31939)
3.18 | ATP1A1 (effect direction: stabilized) (UniProt P05023)
3.22 | ATP2A3 (effect direction: stabilized) (UniProt Q93084)
3.66 | ATP2C1 (effect direction: stabilized) (UniProt P98194)
< 2.7 | ATXN10 (effect direction: stabilized) (UniProt Q9UBB4)
< 2.7 | BOP1 (effect direction: stabilized) (UniProt Q14137)
< 2.7 | C1QBP (effect direction: stabilized) (UniProt Q07021)
3.15 | CAB39 (effect direction: stabilized) (UniProt Q9Y376)
2.95 | CACYBP (effect direction: stabilized) (UniProt Q9HB71)
3.63 | CAMKK2 (effect direction: stabilized) (UniProt Q96RR4)
2.95 | CAND1 (effect direction: stabilized) (UniProt Q86VP6)
5 | CAP1 (effect direction: stabilized) (UniProt Q01518)
3.14 | CARS2 (effect direction: stabilized) (UniProt Q9HA77)
